Experimental data published in PubChem BioAssay (NCI).
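GI50: concentration for 50% inhibition of growth. TGI: concentration producing complete growth inhibition.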

Legend:
Test in all cases: NCI tumour cell line growth inhibition, 384-well format
[1] = test system: TK-10 renal
[2] = test system: COLO 205 colon
[3] = test system: MDA-MB-231 breast
[4] = test system: MCF7 breast
[5] = test system: RXF 393 renal
[6] = test system: BT-549 breast
[7] = test system: SN12C renal
[8] = test system: HOP-62 NSCLC
[9] = test system: HCT-116 colon
[10] = test system: MDA-MB-468 breast
[11] = test system: HCC-2998 colon
[12] = test system: CAKI-1 renal
[13] = test system: U251 glioblastoma
[14] = test system: SNB-19 CNS
[15] = test system: ACHN renal
[16] = test system: SF-295 CNS
[17] = test system: HL-60(TB) leukemia
[18] = test system: IGROV1 ovarian
[19] = test system: OVCAR-4 ovarian
[20] = test system: NCI-H23 lung
[21] = test system: NCI-H322M lung
[22] = test system: SW-620 colon
[23] = test system: OVCAR-5 ovarian
[24] = test system: PC-3 prostate
[25] = test system: NCI/ADR-RES ovarian
[26] = test system: SF-268 CNS
[27] = test system: UO-31 renal
[28] = test system: M14 melanoma
[29] = test system: SR leukemia
[30] = test system: HT29 colon
[31] = test system: K-562 leukemia
[32] = test system: RPMI-8226 leukemia
[33] = test system: NCI-H460 NSCLC
[34] = test system: NCI-H522 lung
[35] = test system: OVCAR-8 ovarian
[36] = test system: T-47D breast
[37] = test system: UACC-257 melanoma
[38] = test system: SF-539 CNS
[39] = test system: MOLT-4 leukemia
[40] = test system: HOP-92 NSCLC
[41] = test system: 786-0 renal
[42] = test system: LOX IMVI melanoma
[43] = test system: MALME-3M melanoma
[44] = test system: A549 NSCLC
[45] = test system: SK-MEL-5 melanoma
[46] = test system: SK-MEL-2 melanoma
[47] = test system: NCI-H226 lung
[48] = test system: HCT-15 colon
[49] = test system: SK-MEL-28 melanoma
[50] = test system: SK-OV-3 ovarian
[51] = test system: OVCAR-3 ovarian
[52] = test system: MDA-MB-435 melanoma
[53] = test system: A498 renal
[54] = test system: KM12 colon
[55] = test system: DU-145 prostate
[56] = test system: CCRF-CEM leukemia
[57] = test system: UACC-62 melanoma

COc1cc(N2CCC(N3CCN(C)CC3)CC2)ccc1Nc1ncnc(Nc2ccccc2S(=O)(=O)C(C)C)n1
GI50 [1]: 2.95 µM | TGI [1]: 9 µM | GI50 [2]: 2.31 µM | TGI [2]: 7.37 µM | GI50 [3]: 1.41 µM | TGI [3]: 4.94 µM | GI50 [4]: 1.04 µM | TGI [4]: 6.1 µM | GI50 [5]: 1.7 µM | TGI [5]: 6.37 µM | GI50 [6]: 10.9 µM | TGI [6]: 22.9 µM | GI50 [7]: 2.6 µM | TGI [7]: 9.92 µM | GI50 [8]: 2.85 µM | TGI [8]: 8.12 µM | GI50 [9]: 3.34 µM | TGI [9]: 12.4 µM | GI50 [10]: 3.1 µM | TGI [10]: 9.91 µM | GI50 [11]: 2.49 µM | TGI [11]: 14.3 µM | GI50 [12]: 2.17 µM | TGI [12]: 5.5 µM | GI50 [13]: 3.75 µM | TGI [13]: 13.5 µM | GI50 [14]: 3.36 µM | TGI [14]: 12.9 µM | GI50 [15]: 1.62 µM | TGI [15]: 5.15 µM | GI50 [16]: 3.03 µM | TGI [16]: 8.73 µM | GI50 [17]: 2.68 µM | TGI [17]: 5.61 µM | GI50 [18]: 1.86 µM | TGI [18]: 4.46 µM | GI50 [19]: 1.49 µM | TGI [19]: 6.28 µM | GI50 [20]: 2.98 µM | TGI [20]: 9.59 µM | GI50 [21]: 2.86 µM | TGI [21]: 9.29 µM | GI50 [22]: 3.26 µM | TGI [22]: 12.3 µM | GI50 [23]: 1.5 µM | TGI [23]: 4.24 µM | GI50 [24]: 6.17 µM | TGI [24]: 19.8 µM | GI50 [25]: 2.56 µM | TGI [25]: 7.81 µM | GI50 [26]: 3.13 µM | TGI [26]: 12.2 µM | GI50 [27]: 1.65 µM | TGI [27]: 4.44 µM | GI50 [28]: 2.38 µM | TGI [28]: 7.72 µM | GI50 [29]: 0.0183 µM | TGI [29]: 0.0328 µM | GI50 [30]: 1.29 µM | TGI [30]: 5.08 µM | GI50 [31]: 3.75 µM | TGI [31]: 15.3 µM | GI50 [32]: 1.27 µM | TGI [32]: 4.72 µM | GI50 [33]: 3.3 µM | TGI [33]: 13.7 µM | GI50 [34]: 1.86 µM | TGI [34]: 6.09 µM | GI50 [35]: 2.99 µM | TGI [35]: 10.2 µM | GI50 [36]: 1.46 µM | TGI [36]: 12.1 µM | GI50 [37]: 2.1 µM | TGI [37]: 6.53 µM | GI50 [38]: 2.29 µM | TGI [38]: 6.32 µM | GI50 [39]: 1.36 µM | TGI [39]: 2.71 µM | GI50 [40]: 1.06 µM | TGI [40]: 3.7 µM | GI50 [41]: 3.08 µM | TGI [41]: 12.6 µM | GI50 [42]: 2.3 µM | TGI [42]: 4.48 µM | GI50 [43]: 3.41 µM | TGI [43]: 14.1 µM | GI50 [44]: 2.48 µM | TGI [44]: 9.2 µM | GI50 [45]: 2.02 µM | TGI [45]: 7.51 µM | GI50 [46]: 1.43 µM | TGI [46]: 3.68 µM | GI50 [47]: 1.42 µM | TGI [47]: 3.68 µM | GI50 [48]: 2.97 µM | TGI [48]: 11.1 µM | GI50 [49]: 2.69 µM | TGI [49]: 9.67 µM | GI50 [50]: 1.5 µM | TGI [50]: 5.26 µM | GI50 [51]: 1.58 µM | TGI [51]: 4.46 µM | GI50 [52]: 1.95 µM | TGI [52]: 5.18 µM | GI50 [53]: 4.96 µM | TGI [53]: 17 µM | GI50 [54]: 3.76 µM | TGI [54]: 13.2 µM | GI50 [55]: 3.23 µM | TGI [55]: 11.8 µM | GI50 [56]: 3.46 µM | TGI [56]: 10.3 µM | GI50 [57]: 3.1 µM | TGI [57]: 14.8 µM
